The source made the active and inactive calls. The rule behind the calls is not given here.
Columns and labels:
[1] = Cmax in Sprague-Dawley rat at 2 mg/kg, iv measured upto 24 hrs by LC-MS/MS analysis; format: ADME, organism-based; parameters: route intravenous, dose 2 mg/kg, time <=24; details: in vivo
L929 = assay: Anti-necroptic activity in mouse L929 cells assessed as TNFalpha/Z-VAD (TSZ) induced necroptosis by measuring cell viability preincubated for 1 hr followed by TSZ addition and measured after 24 hrs by celltiter-glo luminescent cell viability assay; format: functional, cell-based
[2] = Metabolic stability in human liver microsomes assessed as half life by LC-MS/MS analysis; format: ADME
CYP1A2 = target: T1, CYP1A2 (Homo sapiens, UniProt P05177); assay: Inhibition of CYP1A2 (unknown origin) using Phenacetin as cocktail probe substrate at 10 uM preincubated for 20 mins followed by substrate addition and measured after 20 mins by LC-MS/MS analysis relative to control; format: ADME; details: time 40 min
T1 sequence (P05177 whole entry): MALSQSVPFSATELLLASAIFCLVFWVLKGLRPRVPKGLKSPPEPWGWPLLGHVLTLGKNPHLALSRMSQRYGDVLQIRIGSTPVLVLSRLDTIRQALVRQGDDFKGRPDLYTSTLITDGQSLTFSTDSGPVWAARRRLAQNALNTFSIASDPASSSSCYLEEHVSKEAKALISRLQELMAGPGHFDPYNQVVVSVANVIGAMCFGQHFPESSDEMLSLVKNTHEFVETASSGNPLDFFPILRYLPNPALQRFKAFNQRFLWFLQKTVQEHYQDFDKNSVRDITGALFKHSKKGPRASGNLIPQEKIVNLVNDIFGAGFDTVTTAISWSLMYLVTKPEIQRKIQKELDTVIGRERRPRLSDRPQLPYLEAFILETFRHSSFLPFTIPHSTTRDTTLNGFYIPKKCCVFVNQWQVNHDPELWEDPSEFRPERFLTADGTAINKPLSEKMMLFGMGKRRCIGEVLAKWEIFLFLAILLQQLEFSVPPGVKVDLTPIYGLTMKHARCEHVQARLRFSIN

CYP2C19 = CYP2C19 (Homo sapiens, UniProt P33261); assay: Inhibition of CYP2C19 (unknown origin) using cocktail of probe as substrate at 10 uM preincubated for 20 mins followed by substrate addition and measured after 20 mins by LC-MS/MS analysis relative to control; format: ADME; details: time 40 min
CYP2D6 = CYP2D6 (Homo sapiens, UniProt P10635); assay: Inhibition of CYP2D6 (unknown origin) using dextromethorphan as cocktail probe substrate at 10 uM preincubated for 20 mins followed by substrate addition and measured after 20 mins by LC-MS/MS analysis relative to control; format: ADME; details: time 40 min
[3] = Protein binding in rat plasma by LC-MS/MS based equilibrium dialysis method; format: ADME, cell-free; details: read-out: PPB (converted)
[4] = Permeability across apical to basolateral side in human Caco-2 cells at pH 7.4 by LC-MS/MS analysis; format: ADME, cell-based; details: Caco-2, pH 7.4, read-out: permeability
[5] = Metabolic stability in rat liver microsomes assessed as half life by LC-MS/MS analysis; format: ADME, Microsome
[6] = Metabolic stability in rat liver microsomes assessed as intrinsic clearance by LC-MS/MS analysis; format: ADME, Microsome; details: read-out: CLH
[7] = Tmax in Sprague-Dawley rat at 10 mg/kg, po measured upto 24 hrs by LC-MS/MS analysis; format: ADME, organism-based; details: in vivo
[8] = AUC (0 to 24 hrs) in Sprague-Dawley rat at 10 mg/kg, po measured upto 24 hrs by LC-MS/MS analysis; format: ADME, organism-based; parameters: route oral, dose 10 mg/kg, time <=24; details: in vivo
[9] = Clearance in Sprague-Dawley rat at 2 mg/kg, iv measured upto 24 hrs by LC-MS/MS analysis; format: ADME, organism-based; details: in vivo
[10] = Oral bioavailability in Sprague-Dawley rat at 10 mg/kg measured upto 24 hrs by LC-MS/MS analysis; format: ADME, organism-based; details: in vivo
[11] = target: Receptor-interacting serine/threonine-protein kinase 3 (Homo sapiens) (UniProt Q9Y572); assay: Binding affinity to wild-type human partial length RIPK3 (M1 to Q307 residues) expressed in bacterial expression system at 10000 nM measured after 1 hr by Kinomescan method
Mus musculus [12] = assay: Antiinflammatory activity in TNFalpha-induced C57BL/6J mouse systemic inflammatory response syndrome model assessed as reduction in IL-6 production in serum at 3 mg/kg, ip pretreated for 15 mins and measured upto 72 hrs after TNFalpha stimulation; format: functional, organism-based
[13] = Toxicity in C57BL/6J mouse assessed as effect on body weight at 5 to 25 mg/kg, po administered daily for 7 days; format: organism-based; details: in vivo, 168 h, dose 5-25 mg/kg, time 7 day
[14] = Toxicity in C57BL/6J mouse assessed as effect on heart morphological changes at 5 to 25 mg/kg, po administered daily for 7 days by Hand E staining method; format: organism-based; details: in vivo, 168 h, dose 5-25 mg/kg, time 7 day
[15] = Toxicity in C57BL/6J mouse assessed as effect on liver morphological changes at 5 to 25 mg/kg, po administered daily for 7 days by H and E staining method; format: organism-based; details: in vivo, 168 h, dose 5-25 mg/kg, time 7 day
[16] = Toxicity in C57BL/6J mouse assessed as effect on spleen morphological changes at 5 to 25 mg/kg, po administered daily for 7 days by H and E staining method; format: organism-based; details: in vivo, 168 h, dose 5-25 mg/kg, time 7 day
[17] = Half life in Sprague-Dawley rat at 10 mg/kg , po measured upto 24 hrs by LC-MS/MS analysis; format: ADME, organism-based; details: in vivo
[18] = Cmax in Sprague-Dawley rat at 10 mg/kg, po measured upto 24 hrs by LC-MS/MS analysis; format: ADME, organism-based; parameters: route oral, dose 10 mg/kg, time <=24; details: in vivo
Mus musculus [19] = assay: Anti-necroptosis activity against TNFalpha-induced C57BL/6J mouse systemic inflammatory response syndrome model assessed as reduction in hypothermia at 3 mg/kg, ip pretreated for 15 mins and measured upto 72 hrs after TNFalpha stimulation; format: functional, organism-based
[20] = Fraction unbound clearance in Sprague-Dawley rat; format: ADME

CYP2C19, sequence (P33261 whole entry): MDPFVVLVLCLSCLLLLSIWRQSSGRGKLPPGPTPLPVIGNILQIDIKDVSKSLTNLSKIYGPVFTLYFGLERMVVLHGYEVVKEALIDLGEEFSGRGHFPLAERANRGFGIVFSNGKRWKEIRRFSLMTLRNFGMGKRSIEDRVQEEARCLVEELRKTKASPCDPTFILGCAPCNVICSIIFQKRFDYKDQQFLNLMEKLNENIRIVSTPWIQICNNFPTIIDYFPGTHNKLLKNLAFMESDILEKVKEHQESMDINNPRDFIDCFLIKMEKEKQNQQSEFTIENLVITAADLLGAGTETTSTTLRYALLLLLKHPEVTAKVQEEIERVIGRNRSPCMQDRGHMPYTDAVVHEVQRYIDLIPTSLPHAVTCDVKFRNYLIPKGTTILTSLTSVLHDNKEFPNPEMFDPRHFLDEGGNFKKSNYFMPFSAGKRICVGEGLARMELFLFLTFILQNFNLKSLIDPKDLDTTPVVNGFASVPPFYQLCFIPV
CYP2D6, sequence (P10635 whole entry): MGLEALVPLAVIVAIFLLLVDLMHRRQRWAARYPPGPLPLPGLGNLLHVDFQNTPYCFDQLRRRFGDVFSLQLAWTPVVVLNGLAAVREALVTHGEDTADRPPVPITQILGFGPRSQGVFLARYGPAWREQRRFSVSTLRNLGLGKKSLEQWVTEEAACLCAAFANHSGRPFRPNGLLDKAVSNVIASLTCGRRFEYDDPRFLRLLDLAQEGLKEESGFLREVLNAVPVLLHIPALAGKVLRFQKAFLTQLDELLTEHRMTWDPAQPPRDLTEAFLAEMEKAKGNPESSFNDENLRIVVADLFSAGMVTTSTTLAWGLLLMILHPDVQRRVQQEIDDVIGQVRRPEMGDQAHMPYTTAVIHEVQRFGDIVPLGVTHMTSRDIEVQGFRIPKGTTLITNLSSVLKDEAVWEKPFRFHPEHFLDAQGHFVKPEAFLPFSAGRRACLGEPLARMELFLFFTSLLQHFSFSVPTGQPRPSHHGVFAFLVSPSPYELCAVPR
Receptor-interacting serine/threonine-protein kinase 3 (Homo sapiens), sequence (Q9Y572 whole entry, looked up, the tested form may be a part): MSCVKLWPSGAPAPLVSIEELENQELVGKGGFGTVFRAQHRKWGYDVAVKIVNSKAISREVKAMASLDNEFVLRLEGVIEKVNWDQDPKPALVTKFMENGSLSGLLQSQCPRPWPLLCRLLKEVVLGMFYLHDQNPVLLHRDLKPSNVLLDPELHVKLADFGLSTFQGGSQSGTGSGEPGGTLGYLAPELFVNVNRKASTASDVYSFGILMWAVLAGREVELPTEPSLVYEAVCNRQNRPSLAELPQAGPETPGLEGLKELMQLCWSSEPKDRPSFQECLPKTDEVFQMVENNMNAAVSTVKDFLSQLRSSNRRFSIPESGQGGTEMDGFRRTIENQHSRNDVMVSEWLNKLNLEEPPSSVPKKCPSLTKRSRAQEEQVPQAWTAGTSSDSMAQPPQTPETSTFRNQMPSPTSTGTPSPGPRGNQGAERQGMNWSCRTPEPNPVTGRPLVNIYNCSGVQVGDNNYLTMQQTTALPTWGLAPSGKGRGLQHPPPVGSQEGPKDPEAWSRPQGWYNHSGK

Cmax [1]: 1330 ng/mL
half-life [2]: 1.48 h
inhibition at 20 min, 10 µM (CYP1A2): 16%
inhibition at 20 min, 10 µM (CYP2C19): 41%
inhibition at 20 min, 10 µM (CYP2D6): 21%
fraction unbound [3]: 0.018
Papp A→B [4]: 33 ×10⁻⁶ cm/s
half-life [5]: 0.65 h
CLint scaled [6]: 159 mL/min/kg
Tmax [7]: 1.2 h
AUC [8]: 1208 ng·h/mL
clearance [9]: 33 mL/min/kg
F [10]: 63%
Activity [11]: inactive
half-life [17]: 1.7 h
Cmax [18]: 1240 ng/mL
CL free [20]: 183 mL/min/kg
SMILES: Cc1ncc(-c2ccc3nc(NC(=O)C4CC4)sc3c2)cc1NC(=O)OC1CCOCC1
EC50 (L929): 30 nM
Activity (Mus musculus [12]): Active
Activity [13]: Non-Toxic
Activity [14]: Non-Toxic
Activity [15]: Non-Toxic
Activity [16]: Non-Toxic
Activity (Mus musculus [19]): Active

Reference: ChEMBL document CHEMBL5046240, “Design, synthesis, and evaluation of potent RIPK1 inhibitors with in vivo anti-inflammatory activity” (Eur J Med Chem, 2022)
